Measured values reported in patent US20220135539A1, “BIARYL AMIDE COMPOUNDS, PREPARATION METHODS AND MEDICAL APPLICATIONS THEREOF” (Eternity Bioscience Inc., priority 2020, published 2022).

Legend:
human recombinant cRAF = human recombinant cRAF (Homo sapiens, UniProt P04049); experiment: cRAF Inhibition Assay (TR-FRET); type: biochemical
Description: (§1) Activity of human recombinant cRAF were assessed in vitro using time-resolved fluorescence resonance energy transfer (TR-FRET) assay. The assay was performed according to the kit instructions. Briefly, the cRAF enzyme (BPS Bioscience, cat #40008) was diluted to 0.027 ng/μL using the 1× kinase buffer A (Life Tech, cat #PV6135, 5× dilution with H2O); the Fluorescein labeled-MAP2K1 (Life Tech, Cat #PV4812) was diluted to 0.5 μM; ATP (Life Tech, cat #PV3227) was diluted to 20 μM; 2.54, of each diluted reagent was added to a 384-well plate (PerkinElmer, ProxiPlate-384 Plus, 6008280) and mixed together; 2.54, serial diluted compound were added into the mixture. 104, 400-fold diluted LanthaScreen Tb-pMAP2K1 (pSer217/221) antibody (Life Tech, cat #PV4817) was then added to each kinase reaction. The reactions were incubated at Room Temperature for 1 hour. The plate was then read on PHERAstar FSX using 340/490/520 module. Inhibition data were calculated by comparison to vehicle control wells for 0% inhibition and non-stimulated control wells for 100% inhibition. Dose response curves were then generated to determine the concentration required to suppress 50% of enzymatic response (IC50) as derived by non-linear regression analysis using GraphPad Prism.

human recombinant BRAF = target: T1, human recombinant BRAF (Homo sapiens, UniProt P15056); experiment: BRAF^WT Inhibition Assay (TR-FRET); type: biochemical
T1 construct: purchased BPS Bioscience 40065
T1 sequence (P15056 whole entry): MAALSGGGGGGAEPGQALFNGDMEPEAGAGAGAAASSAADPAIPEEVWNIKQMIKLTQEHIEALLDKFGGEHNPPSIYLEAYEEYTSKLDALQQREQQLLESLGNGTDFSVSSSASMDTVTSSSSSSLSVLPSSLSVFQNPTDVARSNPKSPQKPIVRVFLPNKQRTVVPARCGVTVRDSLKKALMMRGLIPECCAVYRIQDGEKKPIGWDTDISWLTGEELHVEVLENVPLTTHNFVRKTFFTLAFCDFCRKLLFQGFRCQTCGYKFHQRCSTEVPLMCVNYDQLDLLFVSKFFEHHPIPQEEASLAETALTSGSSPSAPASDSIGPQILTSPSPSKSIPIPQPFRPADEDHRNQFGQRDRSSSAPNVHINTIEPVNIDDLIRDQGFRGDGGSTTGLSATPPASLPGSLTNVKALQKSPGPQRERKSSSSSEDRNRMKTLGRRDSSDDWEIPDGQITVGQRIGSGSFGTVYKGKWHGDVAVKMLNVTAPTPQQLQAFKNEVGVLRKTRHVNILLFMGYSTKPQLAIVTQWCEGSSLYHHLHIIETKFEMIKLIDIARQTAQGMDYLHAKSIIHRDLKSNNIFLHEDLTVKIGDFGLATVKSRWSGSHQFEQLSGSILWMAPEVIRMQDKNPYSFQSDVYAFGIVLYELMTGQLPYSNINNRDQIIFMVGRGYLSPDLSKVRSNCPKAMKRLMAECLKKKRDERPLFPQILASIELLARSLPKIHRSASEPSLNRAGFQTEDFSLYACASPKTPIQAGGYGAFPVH
Description: as §1, with “BRAF” for “cRAF”, “#40065)” for “#40008)”

[1] = target: T2, human recombinant V600E mutant BRAF (Homo sapiens, UniProt P15056, V600E); experiment: BRAF^V600E Inhibition Assay (TR-FRET); type: biochemical
T2 construct: purchased BPS Bioscience 40533
T2 sequence (P15056 whole entry V600E): as the sequence (P15056 whole entry) above, with V600E counted along it
Description: Activity of human recombinant V600E mutant BRAF were assessed in vitro using time-resolved fluorescence resonance energy transfer (TR-FRET) assay. The assay was performed according to the kit instructions. Briefly, the V600E mutant BRAF enzyme (BPS Bioscience, cat #40533) was diluted to 0.027 ng/μL using the 1× kinase buffer A (Life Tech, cat #PV6135, 5× dilution with H2O); the Fluorescein labeled-MAP2K1 (Life Tech, Cat #PV4812) was diluted to 0.5 μM; ATP (Life Tech, cat #PV3227) was diluted to 20 μM; 2.5 μl of each diluted reagent was added to a 384-well (PerkinElmer, ProxiPlate-384 Plus, 6008280) plate and mixed together; 2.54, serial diluted compounds were added into the mixture. 104, 400-fold diluted LanthaScreen Tb-pMAP2K1 (pSer217/221) antibody (Life Tech, cat #PV4817) was then added to each kinase reaction. The reactions were incubated at Room Temperature for 1 hour. The plate was then read on PHERAstar FSX using 340/490/520 module. Inhibition data were calculated by comparison to vehicle control wells for 0% inhibition and non-stimulated control wells for 100% inhibition. Dose response curves were then generated to determine the concentration required to suppress 50% of enzymatic response (IC50) as derived by non-linear regression analysis using GraphPad Prism.

[2] = test system: NCI-H358 (KRAS^G12C) non-small cell lung cancer cell; experiment: NCI-H358 Cancer Cell Growth Inhibition Assay (CellTiter-Glo); type: cell-based, human; conditions: for GI50: Homo sapiens, 72 h, NCI-H358 cells, incubated for 3 days, CellTiter-Glo
Description: Activity of human NCI-H358 (KRAS^G12C) non-small cell lung cancer cell growth inhibition was assessed in vitro using CellTiter-Glo® Luminescent Cell Viability Assay. The assay was performed according to the kit instructions (Promega, cat #G7570). Briefly, NCI-H358 cells (ATCC, #CRL-5807) were seeded in 96-well plates at a density of 2,500 cells/well in and cells were cultured overnight in a humidified, 5% CO2 cell culture incubator at 37° C. 10 μL serial diluted compounds were added into each cell-culture well and incubated for 3 days. 100 μL CellTiter-Glo® Reagent was added into each well. The reactions were incubated at Room Temperature for 10 minutes, and luminescence signals were recorded on a Tecan Luminescence Plate Reader. Inhibition data were calculated by comparison to vehicle control wells for 0% inhibition and non-stimulated control wells for 100% inhibition. Dose response curves were then generated to determine the concentration required to suppress 50% of cellular growth response (GI50) as derived by non-linear regression analysis using GraphPad Prism.

Chain of human recombinant cRAF (P04049 whole entry Y340D/Y341D, form open): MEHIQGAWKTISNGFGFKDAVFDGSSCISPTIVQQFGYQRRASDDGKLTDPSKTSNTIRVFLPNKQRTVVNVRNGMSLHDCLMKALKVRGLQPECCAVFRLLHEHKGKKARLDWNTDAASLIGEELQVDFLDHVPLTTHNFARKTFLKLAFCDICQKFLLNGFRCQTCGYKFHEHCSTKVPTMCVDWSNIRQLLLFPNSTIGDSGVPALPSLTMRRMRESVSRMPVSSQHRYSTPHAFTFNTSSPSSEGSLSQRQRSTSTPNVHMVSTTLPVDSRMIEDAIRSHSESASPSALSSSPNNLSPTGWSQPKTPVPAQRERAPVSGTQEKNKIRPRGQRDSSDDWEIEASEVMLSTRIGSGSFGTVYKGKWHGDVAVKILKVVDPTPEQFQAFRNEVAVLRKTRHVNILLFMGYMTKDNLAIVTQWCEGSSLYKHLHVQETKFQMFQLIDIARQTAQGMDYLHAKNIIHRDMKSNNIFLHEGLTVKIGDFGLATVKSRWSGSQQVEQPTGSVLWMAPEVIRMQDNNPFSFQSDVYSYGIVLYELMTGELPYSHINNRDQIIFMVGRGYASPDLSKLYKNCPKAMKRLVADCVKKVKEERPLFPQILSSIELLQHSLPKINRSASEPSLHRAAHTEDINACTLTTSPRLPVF

Structure (SMILES)	IC50 (human recombinant cRAF)	IC50 (human recombinant BRAF)	IC50 [1]	cell growth inhibition in H358 cancer line compared to LXH254 [2]	GI50 [2]
Cc1ccc(NC(=O)c2ccc3c(c2)CC3)cc1-c1cc(OCCO)nc(N2CCOCC2)c1 [Example 2, N-(3-(2-(2-hydroxyethoxy)-6-morpholinopyridin-4-yl)-4-methylphenyl)bicyclo[4.2.0]octa-1(6),2,4-triene-3-carboxamide]	7.9 nM	38.5 nM	18 nM		
Cc1ccc(NC(=O)c2ccc3c(c2)C(F)(F)CC3)cc1-c1cc(OCCO)nc(N2CCOCC2)c1 [Example 3, 3,3-difluoro-N-(3-(2-(2-hydroxyethoxy)-6-morpholinopyridin-4-yl)-4-methylphenyl)-2,3-dihydro-1H-indene-5-carboxamide]	27 nM	170 nM	88 nM		
Cc1ccc(NC(=O)c2ccc3c(c2)C(F)(F)CO3)cc1-c1cc(OCCO)nc(N2CCOCC2)c1 [Example 4, 3,3-difluoro-N-(3-(2-(2-hydroxyethoxy)-6-morpholinopyridin-4-yl)-4-methylphenyl)-2,3-dihydrobenzofuran-5-carboxamide]	51 nM	260 nM	96 nM		
Cc1ccc(NC(=O)c2ccc3c(c2)CCC3(F)F)cc1-c1cc(OCCO)nc(N2CCOCC2)c1 [Example 5, 1,1-difluoro-N-(3-(2-(2-hydroxyethoxy)-6-morpholinopyridin-4-yl)-4-methylphenyl)-2,3-dihydro-1H-indene-5-carboxamide]	39 nM	92 nM	65 nM		
Cc1ccc(NC(=O)c2cnc3c(c2)CCC3(F)F)cc1-c1cc(OCCO)nc(N2CCOCC2)c1 [Example 6, 7,7-difluoro-N-(3-(2-(2-hydroxyethoxy)-6-morpholinopyridin-4-yl)-4-methylphenyl)-6,7-dihydro-5H-cyclopenta[b]pyridine-3-carboxamide]	3.9 nM	26 nM	8.4 nM		
Cc1ccc(NC(=O)c2cnc3c(c2)C(F)(F)CC3)cc1-c1cc(OCCO)nc(N2CCOCC2)c1 [Example 7, 5,5-difluoro-N-(3-(2-(2-hydroxyethoxy)-6-morpholinopyridin-4-yl)-4-methylphenyl)-6,7-dihydro-5H-cyclopenta[b]pyridine-3-carboxamide]	10 nM	46 nM	18 nM	better or similar cell growth inhibition	2800 nM
Cc1ccc(NC(=O)c2ccc3c(c2)OC(C)(C)O3)cc1-c1cc(OCCO)nc(N2CCOCC2)c1 [Example 8, N-(3-(2-(2-hydroxyethoxy)-6-morpholinopyridin-4-yl)-4-methylphenyl)-2,2-dimethylbenzo[d][1,3]dioxole-5-carboxamide]	25 nM	140 nM	62 nM	better or similar cell growth inhibition	220 nM
Cc1ccc(NC(=O)c2ccc3c(c2)OCO3)cc1-c1cc(OCCO)nc(N2CCOCC2)c1 [Example 9, N-(3-(2-(2-hydroxyethoxy)-6-morpholinopyridin-4-yl)-4-methylphenyl)benzo[d][1,3]dioxole-5-carboxamide]	6.7 nM	42 nM	18 nM	better or similar cell growth inhibition	1600 nM
Cc1ccc(NC(=O)c2cc3c(cn2)OC(F)(F)O3)cc1-c1cc(OCCO)nc(N2CCOCC2)c1 [Example 10, 2,2-difluoro-N-(3-(2-(2-hydroxyethoxy)-6-morpholinopyridin-4-yl)-4-methylphenyl)-[1,3]dioxolo[4,5-c]pyridine-6-carboxamide]	25 nM	95 nM	55 nM	better or similar cell growth inhibition	85 nM
Cc1ncc(NC(=O)c2ccc3c(c2)OC(F)(F)O3)cc1-c1cc(OCCO)nc(N2CCOCC2)c1 [Example 11, 2,2-difluoro-N-(2′-(2-hydroxyethoxy)-2-methyl-6′-morpholino-[3,4′-bipyridin]-5-yl)benzo[d][1,3]dioxole-5-carboxamide]	10 nM	70 nM	39 nM		
Cc1ccc(NC(=O)c2ccc3c(c2)OCCO3)cc1-c1cc(OCCO)nc(N2CCOCC2)c1 [Example 13, N-(3-(2-(2-hydroxyethoxy)-6-morpholinopyridin-4-yl)-4-methylphenyl)-2,3-dihydrobenzo[b][1,4]dioxine-6-carboxamide]	4.7 nM	31 nM	13 nM	better or similar cell growth inhibition	1200 nM
